Laboratory results published in the NIST ThermoML archive (doi:10.1016/j.fluid.2005.11.013).

Experiment: wn = mass fraction of the nth substance listed
Conditions: Liquid; for mass density: Other PVT measurement; for viscosity: 17000 kPa, high pressure falling cylinger viscometer

CC(=O)OC[C@H]1O[C@@H](OC(C)=O)[C@H](OC(C)=O)[C@@H](OC(C)=O)[C@H]1OC(C)=O [β-D-galactose pentaacetate] + O=C=O
mass density [kg/m3]
Conditions | w1 = 0.206 | w1 = 0.259
308 K, 10600 kPa | 930 | 990
308 K, 11000 kPa | – | 1000
308 K, 11400 kPa | 940 | –
308 K, 11700 kPa | – | 1010
308 K, 12300 kPa | 950 | –
308 K, 12400 kPa | – | 1020
308 K, 13300 kPa | – | 1030
308 K, 13700 kPa | 960 | –
308 K, 14900 kPa | – | 1040
308 K, 15000 kPa | 970 | –
308 K, 15500 kPa | 970 | –
308 K, 17100 kPa | – | 1060
313 K, 11900 kPa | – | 970
313 K, 12100 kPa | 940 | –
313 K, 12600 kPa | – | 980
313 K, 12700 kPa | 940 | –
313 K, 13300 kPa | – | 980
313 K, 13600 kPa | 950 | –
313 K, 14200 kPa | – | 990
313 K, 15100 kPa | 960 | 1000
313 K, 15800 kPa | – | 1010
313 K, 16200 kPa | 970 | –
313 K, 17300 kPa | – | 1020
313 K, 17500 kPa | 980 | –
313 K, 18500 kPa | 980 | –
313 K, 19400 kPa | 980 | –
313 K, 19800 kPa | – | 1040
318 K, 14400 kPa | 930 | –
318 K, 15100 kPa | 940 | –
318 K, 15900 kPa | 940 | –
318 K, 16700 kPa | 950 | –
318 K, 17900 kPa | 960 | –
318 K, 20300 kPa | 970 | –
323 K, 15500 kPa | 930 | –
323 K, 16000 kPa | 940 | –
323 K, 16600 kPa | 940 | –
323 K, 17700 kPa | 950 | –
323 K, 18900 kPa | 960 | –

318 K
Conditions | viscosity [mPa·s]
w1 = 0.18 | 0.095
w1 = 0.25 | 0.103
